“And” between values parts separate entries of the source, which are not always exact repeats. Equal entries are not always repeated. Where two headings read alike, the source gives them in different places.

The test system of experiment [1] is Production of TNFα in THP-1 cells. The experiment is described as follows: p38-dependent TNF production in THP-1 cells. The experiment is classed as cell-based.
In experiment [2] the test system is TSLP mRNA levels in NHBE cells. Kind of experiment: TSLP mRNA real-time PCR (qPCR) in NHBE cells. More on the design: TSLP mRNA upregulation (% versus control) / % Inhibition of mRNA: dose or concentration left out as unconfirmed. In kind it is cell-based, human. Particulars: for % Inhibition of mRNA at [4 μM] ± SD: NHBE donor #1, 6 h stimulation; for % Inhibition of mRNA: individual values, donor #1. In general terms: In qPCR the cycle at which signal appears reflects the starting amount.

Experiment [3] deals with 125 representative kinases. The experiment is described as follows: 125 kinase selectivity panel (overall). In kind it is biochemical. Particulars: 10 μM. As to the method: Kinase selectivity was evaluated at Eurofins Pharma Discovery Services using a selection of 125 representative kinases tested at a concentration of 10 μM in duplicate (S3 Table). IC50 values for selected activities were further characterized at 9 duplicate concentrations. DNA-PK activity was determined at the SelectScreen® Biochemical kinase Profiling Service of Thermo Fisher Scientific.

In experiment [4] the test system is TSLP production in NHBE cells. Kind of experiment: TSLP HTRF assay (TSLP production in poly I:C / IL-4 stimulated NHBE cells). In kind it is cell-based, human. As to the method:
For dose response curves determinations, stocks of test compounds at a concentration of 1.33x10^-3 M in DMSO were sequentially diluted at 1:4 dilution steps before further 1/50 dilution in BEBM medium containing 1x ITS and 0.1% BSA. For the highest 4 μM concentration test compounds were resuspended in DMSO at a concentration of 2.5x10^-3 M and diluted 1/25 in BEBM medium containing 1x ITS and 0.1% BSA before adding 1 μl to the wells containing the cells.
All subsequent steps were automated using a Sciclone® G3 workstation (Perkin Elmer) with a Twister™ II robot (Perkin Elmer). […] 1 μl of test compound solution prepared at 25x concentration was added to the wells containing NHBE cells. The plates were then incubated during 90 minutes at 37°C, 5% CO2, 90% humidity before adding poly I:C (Invivogen HMW Tirl-pic-5) and human IL-4 (Peprotech 200–04) stimulus in 4 μl of BEBM medium containing 1x ITS, 0.1% BSA and 0.1% DMSO using a Multidrop™. […] Cells were then incubated for 24h in the presence of test compounds and stimulus at 37°C, 5% CO2 and 90% humidity conditions. After the 24h incubation period the plates were transferred to a CyBi®-Well platform (CyBio AG) to collect 10 μl of the supernatants which were transferred to a new plate. TSLP levels in the supernatant were determined using a homogeneous Time-Resolved Fluorescence (HTRF) assay custom developed by Cisbio. The assay was based in the use of a donor dye (europium cryptate) coupled to a monoclonal anti-TSLP antibody and an acceptor dye (d2) coupled to a second polyclonal anti-TSLP antibody. […] 10 μl of the resulting solution was then used to determine TSLP levels as described above.
The standard curve was built with eight points prepared in ITS/BSA in BEBM medium without supplements, starting at 700 pg/ml and diluted 1:2, with medium alone being zero TSLP. Fitting model corresponded to equation 100 of Excel fit software. Data from the primary phenotypic screen was visualized using Vortex (Dotmatics). […] For compound selection the maximum inhibition of the two individual duplicate values was taken into account. Dose response confirmation was performed at single point in the 2 donors tested. 9 point curves were run starting at 4 μM concentration by doing serial 1:4 dilutions in cells derived from both donors.
For orientation: TR-FRET usually uses a lanthanide donor and a delayed reading to cut background.

The subject of experiment [5] is glycine (strychnine-insensitive). The experiment is described as follows: BioPrint panel: glycine (strychnine-insensitive)(antagonist). The experiment is classed as binding. Particulars: 1 micromolar. From the text: (§1) Supplement pone.0189247.s004.xlsx, sheet "Bioprint Selectivity Panel" | column: %
The target of another experiment is T1, GR (Homo sapiens, UniProt P04150).
T1 construct: purchased Eurofins Pharma Discovery Services (KinaseProfiler; Cerep BioPrint panel)
Kind of experiment: BioPrint panel: GR (h) (agonist). The experiment is classed as binding. Particulars: 1 micromolar, read-out: percentage of inhibition of activity.
Description: as §1

For a further experiment, the target named is T2, ACE (Homo sapiens, UniProt P12821).
T2 construct: purchased Eurofins Pharma Discovery Services (KinaseProfiler; Cerep BioPrint panel)
The experiment is described as follows: BioPrint panel: ACE (h). The experiment is classed as biochemical. Particulars: 1 micromolar.
Description: as §1

A further experiment deals with T3, alpha 1A (Homo sapiens, UniProt P35348).
T3 construct: purchased Eurofins Pharma Discovery Services (KinaseProfiler; Cerep BioPrint panel)
The experiment is described as follows: BioPrint panel: alpha 1A (h) (antagonist). The experiment is classed as binding. Particulars: 1 micromolar, read-out: percentage of inhibition of activity.
Description: as §1

The target of another experiment is T4, APJ (apelin) (Homo sapiens, UniProt P35414).
T4 construct: purchased Eurofins Pharma Discovery Services (KinaseProfiler; Cerep BioPrint panel)
Kind of experiment: BioPrint panel: APJ (apelin) (h) (agonist). In kind it is binding. Particulars: 1 micromolar, read-out: percentage of inhibition of activity.
Description: as §1

Another experiment concerns the target T5, M4 (Homo sapiens, UniProt P08173).
T5 construct: purchased Eurofins Pharma Discovery Services (KinaseProfiler; Cerep BioPrint panel)
Kind of experiment: BioPrint panel: M4 (h) (antagonist). Particulars: 1 micromolar, read-out: percentage of inhibition of activity. In kind it is binding.
Description: as §1

The target in a further experiment is T6, acetylcholinesterase (Homo sapiens, UniProt P22303).
T6 construct: purchased Eurofins Pharma Discovery Services (KinaseProfiler; Cerep BioPrint panel)
The experiment is described as follows: BioPrint panel: acetylcholinesterase (h). The experiment is classed as biochemical. Particulars: 1 micromolar, read-out: percentage of inhibition of activity.
Description: as §1

A further experiment has as its target T7, MT3 (QR2) (Mesocricetus auratus, UniProt A0ABM2YAB8).
T7 construct: Eurofins Pharma Discovery Services (contract assay service)
T7 sequence (A0ABM2YAB8 1-231): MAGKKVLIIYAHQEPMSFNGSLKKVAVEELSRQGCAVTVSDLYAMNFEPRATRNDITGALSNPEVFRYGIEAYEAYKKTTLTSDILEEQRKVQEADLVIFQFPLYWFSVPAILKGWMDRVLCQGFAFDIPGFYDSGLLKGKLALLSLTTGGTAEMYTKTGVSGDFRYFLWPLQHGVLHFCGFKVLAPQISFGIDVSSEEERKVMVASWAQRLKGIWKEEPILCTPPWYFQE
Kind of experiment: BioPrint panel: MT3. The experiment is classed as binding. As to the method:
General selectivity profiling was performed at Eurofins Pharma Discovery Services using the BioPrint® panel and reference database. The panel included 104 binding assays (non-peptide, peptide and nuclear receptors, ion channels and amine transporters) and 41 cell based and enzyme assays (including 10 kinases, 9 proteases and 5 phosphodiesterases) (S4 Table). More than 70% were human targets. Compound 4 was tested at a concentration of 1 μM in duplicate (10 μM for P-gp and CYP enzymes). The resulting bioactivity fingerprint was compared with a database of >2,500 BioPrint marketed drugs and reference compounds. IC50 values for selected activities were further characterized at 8 concentrations in duplicate.

Another experiment deals with T8, UT (Homo sapiens, UniProt Q9UKP6).
T8 construct: purchased Eurofins Pharma Discovery Services (KinaseProfiler; Cerep BioPrint panel)
The experiment is described as follows: BioPrint panel: UT (h) (agonist). Particulars: 1 micromolar, read-out: percentage of inhibition of activity. In kind it is binding.
Description: as §1

The target in another experiment is T9, 5-HT1B (Rattus norvegicus, UniProt P28564).
T9 construct: purchased Eurofins Pharma Discovery Services (KinaseProfiler; Cerep BioPrint panel)
The experiment is described as follows: BioPrint panel: 5-HT1B (antagonist). In kind it is binding. Particulars: 1 micromolar, read-out: percentage of inhibition of activity.
Description: as §1

The test system of the next experiment is GABA transporter. Kind of experiment: BioPrint panel: GABA transporter (antagonist). Particulars: 1 micromolar. The experiment is classed as binding.
Description: as §1

In the next experiment the target is T10, EP2 (Homo sapiens, UniProt P43116).
T10 construct: purchased Eurofins Pharma Discovery Services (KinaseProfiler; Cerep BioPrint panel)
Kind of experiment: BioPrint panel: EP2 (h) (agonist). The experiment is classed as binding. Particulars: 1 micromolar, read-out: percentage of inhibition of activity.
Description: as §1

The mark [6] stands for this setting: Homo sapiens, THP-1, geometric mean, read-out: Activity in reference cell based assay (IC50, μM) (95% CI) Production of TNFα in THP-1 cells.
Where [7] appears, read: Homo sapiens, THP-1, individual values, read-out: Cellular activity (IC50, mM) TNFa production in THP-1.
[8] abbreviates: Homo sapiens, NHBE, 24 h, NHBE cells donor #1, poly I:C / IL-4, 24h, geometric mean, read-out: Inhibition of TSLP protein production (IC50, μM) (95% CI).
The mark [9] stands for this setting: individual values, donor #1, read-out: Inhibition of TSLP production in NHBE (IC50).

T2 sequence (P12821 30-1306): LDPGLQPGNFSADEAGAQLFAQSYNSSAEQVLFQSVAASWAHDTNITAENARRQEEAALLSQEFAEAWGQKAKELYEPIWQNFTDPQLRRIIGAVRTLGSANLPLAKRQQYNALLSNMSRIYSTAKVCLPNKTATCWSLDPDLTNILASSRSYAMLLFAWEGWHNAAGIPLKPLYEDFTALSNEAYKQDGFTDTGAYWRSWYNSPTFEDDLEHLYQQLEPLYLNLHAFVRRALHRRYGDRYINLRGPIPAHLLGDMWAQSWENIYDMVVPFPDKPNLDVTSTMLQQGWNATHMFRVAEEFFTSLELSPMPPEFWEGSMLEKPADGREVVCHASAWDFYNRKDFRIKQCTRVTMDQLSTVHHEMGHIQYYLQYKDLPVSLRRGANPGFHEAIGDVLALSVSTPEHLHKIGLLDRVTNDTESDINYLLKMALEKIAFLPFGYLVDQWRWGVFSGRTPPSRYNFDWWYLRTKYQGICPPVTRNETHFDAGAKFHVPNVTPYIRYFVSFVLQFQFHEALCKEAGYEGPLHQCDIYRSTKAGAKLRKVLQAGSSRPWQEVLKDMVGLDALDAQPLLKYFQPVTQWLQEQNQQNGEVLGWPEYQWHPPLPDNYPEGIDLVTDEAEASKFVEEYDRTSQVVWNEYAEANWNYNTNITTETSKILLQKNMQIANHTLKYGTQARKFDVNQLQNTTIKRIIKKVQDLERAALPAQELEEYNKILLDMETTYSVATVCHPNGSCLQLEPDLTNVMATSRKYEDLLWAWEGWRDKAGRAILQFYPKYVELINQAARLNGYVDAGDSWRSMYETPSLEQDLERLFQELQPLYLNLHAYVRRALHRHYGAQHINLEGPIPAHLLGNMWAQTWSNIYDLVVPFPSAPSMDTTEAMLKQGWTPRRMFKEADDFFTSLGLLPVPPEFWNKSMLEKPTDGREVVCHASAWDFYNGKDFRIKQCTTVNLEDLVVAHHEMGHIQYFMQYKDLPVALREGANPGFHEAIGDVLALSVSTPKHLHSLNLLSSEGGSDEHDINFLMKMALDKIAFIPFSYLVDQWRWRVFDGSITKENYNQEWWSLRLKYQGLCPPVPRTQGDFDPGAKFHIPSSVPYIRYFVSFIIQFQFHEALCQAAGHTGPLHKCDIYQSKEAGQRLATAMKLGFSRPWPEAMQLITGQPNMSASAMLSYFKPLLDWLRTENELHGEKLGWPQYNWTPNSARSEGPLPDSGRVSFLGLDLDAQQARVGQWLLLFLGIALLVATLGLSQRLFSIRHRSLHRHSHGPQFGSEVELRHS
T3 sequence (P35348 whole entry): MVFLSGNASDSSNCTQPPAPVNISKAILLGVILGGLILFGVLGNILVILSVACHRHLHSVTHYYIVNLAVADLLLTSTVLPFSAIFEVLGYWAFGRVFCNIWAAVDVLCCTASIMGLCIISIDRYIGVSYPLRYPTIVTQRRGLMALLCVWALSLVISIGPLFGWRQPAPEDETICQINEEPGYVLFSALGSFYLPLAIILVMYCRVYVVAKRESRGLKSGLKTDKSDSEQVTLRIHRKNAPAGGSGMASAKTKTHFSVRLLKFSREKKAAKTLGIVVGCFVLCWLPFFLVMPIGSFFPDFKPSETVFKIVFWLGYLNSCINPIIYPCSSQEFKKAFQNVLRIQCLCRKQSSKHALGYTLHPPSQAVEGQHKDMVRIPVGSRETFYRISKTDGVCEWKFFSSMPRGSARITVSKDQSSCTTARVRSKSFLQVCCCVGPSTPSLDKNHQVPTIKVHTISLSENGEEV
T9 sequence (P28564 whole entry): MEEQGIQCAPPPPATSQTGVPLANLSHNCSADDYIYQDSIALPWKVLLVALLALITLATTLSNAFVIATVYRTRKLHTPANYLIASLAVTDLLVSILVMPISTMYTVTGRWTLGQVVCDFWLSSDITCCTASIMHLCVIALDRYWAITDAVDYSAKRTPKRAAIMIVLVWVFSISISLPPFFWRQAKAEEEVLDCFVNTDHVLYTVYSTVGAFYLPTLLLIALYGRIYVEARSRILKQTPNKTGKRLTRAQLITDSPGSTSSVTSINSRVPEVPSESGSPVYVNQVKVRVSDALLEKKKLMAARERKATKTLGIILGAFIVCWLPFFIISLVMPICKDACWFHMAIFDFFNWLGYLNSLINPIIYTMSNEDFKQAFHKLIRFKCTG
T10 sequence (P43116 whole entry): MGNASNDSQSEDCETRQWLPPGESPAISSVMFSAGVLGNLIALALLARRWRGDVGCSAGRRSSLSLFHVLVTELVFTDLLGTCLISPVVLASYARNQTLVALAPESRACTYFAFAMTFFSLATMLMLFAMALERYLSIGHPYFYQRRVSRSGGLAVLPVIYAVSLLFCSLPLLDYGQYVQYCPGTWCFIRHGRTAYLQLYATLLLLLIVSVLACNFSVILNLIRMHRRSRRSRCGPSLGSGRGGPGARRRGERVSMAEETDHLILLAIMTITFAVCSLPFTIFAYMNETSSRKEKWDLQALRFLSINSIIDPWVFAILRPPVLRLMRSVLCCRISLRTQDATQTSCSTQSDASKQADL
T6 sequence (P22303 32-614): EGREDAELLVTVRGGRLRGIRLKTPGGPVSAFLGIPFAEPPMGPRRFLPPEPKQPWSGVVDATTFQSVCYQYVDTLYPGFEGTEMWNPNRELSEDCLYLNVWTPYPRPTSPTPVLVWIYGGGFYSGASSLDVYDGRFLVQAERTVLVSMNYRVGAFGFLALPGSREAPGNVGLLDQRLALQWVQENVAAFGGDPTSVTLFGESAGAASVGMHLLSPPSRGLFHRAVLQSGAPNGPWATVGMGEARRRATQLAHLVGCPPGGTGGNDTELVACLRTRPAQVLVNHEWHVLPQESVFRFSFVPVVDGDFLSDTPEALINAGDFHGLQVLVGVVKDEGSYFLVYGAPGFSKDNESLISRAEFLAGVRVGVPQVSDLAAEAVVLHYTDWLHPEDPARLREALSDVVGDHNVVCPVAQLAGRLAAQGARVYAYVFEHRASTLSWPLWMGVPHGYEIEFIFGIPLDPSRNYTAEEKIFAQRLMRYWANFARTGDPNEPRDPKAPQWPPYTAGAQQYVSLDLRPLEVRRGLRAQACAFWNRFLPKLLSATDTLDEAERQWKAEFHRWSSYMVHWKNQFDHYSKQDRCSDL
T4 sequence (P35414 whole entry): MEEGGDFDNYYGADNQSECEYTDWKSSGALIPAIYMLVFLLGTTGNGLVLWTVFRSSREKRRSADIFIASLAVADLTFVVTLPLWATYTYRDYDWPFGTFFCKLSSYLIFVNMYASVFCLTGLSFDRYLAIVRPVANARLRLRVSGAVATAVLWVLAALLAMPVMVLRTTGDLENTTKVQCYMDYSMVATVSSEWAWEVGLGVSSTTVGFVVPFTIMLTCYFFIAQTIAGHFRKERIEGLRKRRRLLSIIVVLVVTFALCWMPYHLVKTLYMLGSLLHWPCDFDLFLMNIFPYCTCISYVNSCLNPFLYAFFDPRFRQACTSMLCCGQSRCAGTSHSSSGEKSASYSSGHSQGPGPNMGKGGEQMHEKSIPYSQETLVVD
T1 sequence (P04150 whole entry): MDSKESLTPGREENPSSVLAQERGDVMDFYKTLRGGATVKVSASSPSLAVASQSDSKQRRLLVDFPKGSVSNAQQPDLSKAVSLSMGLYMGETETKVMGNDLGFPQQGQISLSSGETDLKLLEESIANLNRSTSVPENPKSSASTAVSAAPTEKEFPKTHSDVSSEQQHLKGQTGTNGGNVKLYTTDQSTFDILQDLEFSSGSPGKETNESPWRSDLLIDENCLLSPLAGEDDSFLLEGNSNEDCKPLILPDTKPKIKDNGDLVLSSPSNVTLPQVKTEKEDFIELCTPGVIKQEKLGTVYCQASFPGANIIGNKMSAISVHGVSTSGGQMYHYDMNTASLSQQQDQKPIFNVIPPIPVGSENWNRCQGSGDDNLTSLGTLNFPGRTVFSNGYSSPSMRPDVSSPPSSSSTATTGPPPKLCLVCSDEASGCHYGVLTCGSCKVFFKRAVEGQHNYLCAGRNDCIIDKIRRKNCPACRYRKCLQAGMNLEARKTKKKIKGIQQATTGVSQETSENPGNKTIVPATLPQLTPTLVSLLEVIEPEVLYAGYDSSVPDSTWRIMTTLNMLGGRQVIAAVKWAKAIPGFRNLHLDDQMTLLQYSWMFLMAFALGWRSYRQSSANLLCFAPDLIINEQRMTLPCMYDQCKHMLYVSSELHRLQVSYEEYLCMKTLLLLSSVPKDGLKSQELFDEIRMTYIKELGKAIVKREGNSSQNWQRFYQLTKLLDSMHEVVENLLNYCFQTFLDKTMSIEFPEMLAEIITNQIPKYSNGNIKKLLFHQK
T8 sequence (Q9UKP6 whole entry): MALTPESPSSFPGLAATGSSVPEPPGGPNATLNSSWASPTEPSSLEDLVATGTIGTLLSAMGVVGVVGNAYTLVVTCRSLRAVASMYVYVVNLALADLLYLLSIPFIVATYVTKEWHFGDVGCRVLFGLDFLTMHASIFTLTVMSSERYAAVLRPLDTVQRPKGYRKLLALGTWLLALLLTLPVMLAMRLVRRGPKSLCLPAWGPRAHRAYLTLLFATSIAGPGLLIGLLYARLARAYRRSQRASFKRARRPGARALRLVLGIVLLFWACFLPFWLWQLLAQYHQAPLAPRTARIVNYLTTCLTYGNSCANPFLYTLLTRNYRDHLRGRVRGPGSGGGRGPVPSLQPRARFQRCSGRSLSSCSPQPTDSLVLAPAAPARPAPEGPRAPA

With `CC(C)(C)N1CCC(c2cc(-c3ccc(F)cc3Cl)c3cc[n+]([O-])c(-c4c(Cl)cccc4Cl)c3n2)CC1` [compound 2], the IC50 in [1] (setting [6]) was 0.0004 µM; in experiment [1] (setting [7]), 0.00045 µM; in experiment [4] (setting [8]), 0.022 µM; in experiment [4] (setting [9]) it was 0.023 µM and 0.009 µM and 0.055 µM. In experiment [2], the “% Inhibition of mRNA at [4 μM] ± SD” value is 79.69 ± 4.76%. In addition, the “% Inhibition of mRNA” value in experiment [2] is 83.056% and 76.316%. The “inhibition in the rest of the panel” value in [3] was “less than 50%”.

As to `Cc1ccc(C(=O)NCC2CC2)cc1-c1ccc2c(c1)NC(=O)C21CCCC1` [compound 3], the IC50 was 0.001 µM in [1] (setting [6]); 0.00242 µM in experiment [1] (setting [7]); 0.00132 µM in [1] (individual values, read-out: Cellular activity (IC50, mM) TNFa production in THP-1); 0.172 µM in [4] (setting [8]); 0.186 µM in experiment [4] (Homo sapiens, NHBE, individual values, donor #1, read-out: Inhibition of TSLP production in NHBE (IC50)); 0.211 µM and 0.131 µM in experiment [4] (setting [9]). For the same molecule, in experiment [2], the “% Inhibition of mRNA at [4 μM] ± SD” value turned out to be 80.07 ± 0.48%. Also, the “% Inhibition of mRNA” value in experiment [2] was 80.414% and 79.735%. For the same molecule, in [3], the “inhibition in the rest of the panel” value is recorded as “less than 50%”.

Regarding `Cn1cc(-c2cccc(-c3nc(C(=O)NC4C5CC6CC4CC(O)(C6)C5)c(N)nc3N)c2)cn1` (stereo not drawn) [compound 4], the entries for the “percentage of inhibition of activity” value (in experiment [5]; at ACE; in the experiment with GABA transporter) were -5.3%, “INTER” and 1.1%, respectively. The inhibition at 1 µM at GR was found to be 0.9%; at alpha 1A, 2.8%; on APJ (apelin), 0.8%; at M4 it was 0.7%; at acetylcholinesterase, 6.2%; at MT3 (QR2) (1 μM, read-out: inhibition of MT3), 71%. Moreover, the inhibition at 1 µM on MT3 (QR2) (1 micromolar, MT3 (ML2) (agonist), read-out: percentage of inhibition of activity) is 71.9%; on UT, 7.4%; at 5-HT1B, -1.1%; on EP2, -23.9%. Moreover, the IC50 was 0.4 µM on MT3 (QR2) (dose response, duplicate, read-out: Inhibition of indicated activity (IC50, μM): MT3 (QR2)); 0.075 µM in experiment [4] (setting [8]); 0.052 µM and 0.037 µM and 0.178 µM and 0.1 µM and 0.036 µM and 0.147 µM in experiment [4] (setting [9]). Moreover, the “% Inhibition of mRNA at [4 μM] ± SD” value in experiment [2] stood at 90.44 ± 0.24%. Moreover, the “% Inhibition of mRNA” value in [2] was 90.608% and 90.263%.

On to `CS(=O)(=O)N1CCN(c2ccc(Nc3ncc(C(N)=O)c(NC4CC4)n3)cc2)CC1` [compound 5], for which, in experiment [2], the “% Inhibition of mRNA at [4 μM] ± SD” value is recorded as 99.76 ± 0.12%; the “% Inhibition of mRNA” value is 99.853% and 99.672%. For the same molecule, the IC50 in experiment [4] (setting [8]) was 0.043 µM. Moreover, the IC50 in experiment [4] (setting [9]) is 0.026 µM and 0.048 µM and 0.028 µM and 0.054 µM and 0.083 µM.

As for `COc1c(NC(=O)c2ccc(C)c(-c3nnc4c(NCC(C)(C)C)nccn34)c2)cc(C(C)(C)C)cc1NS(C)(=O)=O` [compound 7, reference compound], the IC50 is 0.002 µM in experiment [1] (setting [6]); 0.002 µM in [1] (setting [7]); 0.738 µM in experiment [4] (setting [8]); 0.486 µM and 0.72 µM and 1.15 µM in experiment [4] (setting [9]).

A word on the IC50: it is the concentration that gives 50% inhibition. As a reminder, the inhibition is the change of the read-out against control, counted positive when it falls.

(Values after publication PMC5761851, “Application of a phenotypic drug discovery strategy to identify biological and chemical starting points for inhibition of TSLP production in lung epithelial cells” (PLoS ONE, 2018).)
